# Values joined by “and” are separate entries in the source; they are usually repeats but may differ in a detail not shown here. Equal entries are not always repeated. Active and inactive are the calls of the source. No rule for the calls is given here.
# System: rodent lifetime carcinogenesis bioassay, tumor incidence TD50
# Test: chronic cancer bioassays in animals – CPDB, compiled studies (AID 1745844)
smiles,measurement,setting,value
O=c1ccc2ccccc2o1,TD50,"hamster, strain Syrian Golden, females, in feed, site: any site (literature study), lesion: several types, types named in the paper, dosed 95 weeks, study length 104 weeks",5520 mg/kg/day (inactive)
same,carcinogen call,"hamster, strain Syrian Golden, females, in feed, site: liver, lesion: one or several types, types not named, dosed 95 weeks, study length 104 weeks",negative (inactive)
same,TD50,"hamster, strain Syrian Golden, males, in feed, site: any site (literature study), lesion: several types, types named in the paper, dosed 104 weeks, study length 104 weeks",603 mg/kg/day (inactive)
same,carcinogen call,"hamster, strain Syrian Golden, males, in feed, site: liver, lesion: one or several types, types not named, dosed 104 weeks, study length 104 weeks",negative (inactive)
same,TD50,"mouse, strain B6C3F1, females, by gavage, site: any site (literature study), lesion: several types, types named in the paper, dosed 103 weeks, study length 104 weeks",198 mg/kg/day
same,TD50,"mouse, strain B6C3F1, females, by gavage, site: forestomach, lesion: squamous-cell carcinoma + squamous-cell papilloma, dosed 103 weeks, study length 104 weeks",42000 mg/kg/day
same,TD50,"mouse, strain B6C3F1, females, by gavage, site: forestomach, lesion: squamous-cell papilloma, dosed 103 weeks, study length 104 weeks",12200 mg/kg/day
same,TD50,"mouse, strain B6C3F1, females, by gavage, site: liver + lung, lesion: hepatocellular adenoma + hepatocellular carcinoma + alveolar/bronchiolar adenoma + alveolar/bronchiolar carcinoma, dosed 103 weeks, study length 104 weeks",85.5 mg/kg/day
same,TD50,"mouse, strain B6C3F1, females, by gavage, site: liver, lesion: hepatocellular adenoma + hepatoblastoma + hepatocellular carcinoma, dosed 103 weeks, study length 104 weeks",65.7 mg/kg/day
same,TD50,"mouse, strain B6C3F1, females, by gavage, site: liver, lesion: hepatocellular adenoma + hepatocellular carcinoma, dosed 103 weeks, study length 104 weeks",65.7 mg/kg/day
same,TD50,"mouse, strain B6C3F1, females, by gavage, site: liver, lesion: hepatocellular adenoma, dosed 103 weeks, study length 104 weeks",72.8 mg/kg/day
same,TD50,"mouse, strain B6C3F1, females, by gavage, site: lung, lesion: alveolar/bronchiolar adenoma + alveolar/bronchiolar carcinoma, dosed 103 weeks, study length 104 weeks",135 mg/kg/day
same,TD50,"mouse, strain B6C3F1, females, by gavage, site: lung, lesion: alveolar/bronchiolar adenoma, dosed 103 weeks, study length 104 weeks",179 mg/kg/day
same,TD50,"mouse, strain B6C3F1, females, by gavage, site: lung, lesion: alveolar/bronchiolar carcinoma, dosed 103 weeks, study length 104 weeks",825 mg/kg/day
same,TD50,"mouse, strain B6C3F1, males, by gavage, site: all sites, lesion: histiocytic sarcoma + malignant lymphoma, histiocytic type + malignant lymphoma, mixed type + malignant lymphoma, lymphocytic, dosed 103 weeks, study length 104 weeks",600 mg/kg/day
same,TD50,"mouse, strain B6C3F1, males, by gavage, site: any site (literature study), lesion: several types, types named in the paper, dosed 103 weeks, study length 104 weeks",461 mg/kg/day
same,TD50,"mouse, strain B6C3F1, males, by gavage, site: forestomach, lesion: squamous-cell carcinoma + squamous-cell papilloma, dosed 103 weeks, study length 104 weeks",152 mg/kg/day
same,TD50,"mouse, strain B6C3F1, males, by gavage, site: forestomach, lesion: squamous-cell papilloma, dosed 103 weeks, study length 104 weeks",179 mg/kg/day
same,TD50,"mouse, strain B6C3F1, males, by gavage, site: liver, lesion: hepatoblastoma, dosed 103 weeks, study length 104 weeks",632 mg/kg/day
same,TD50,"mouse, strain B6C3F1, males, by gavage, site: lung, lesion: alveolar/bronchiolar adenoma + alveolar/bronchiolar carcinoma, dosed 103 weeks, study length 104 weeks",241 mg/kg/day
same,TD50,"mouse, strain B6C3F1, males, by gavage, site: lung, lesion: alveolar/bronchiolar adenoma, dosed 103 weeks, study length 104 weeks",265 mg/kg/day
same,TD50,"mouse, strain B6C3F1, males, by gavage, site: pancreatic islets, lesion: islet-cell adenoma, dosed 103 weeks, study length 104 weeks",1310 mg/kg/day
same,TD50,"mouse, strain Charles River CD1, females, in feed, site: liver, lesion: several types, types named in the paper, dosed 109 weeks, study length 109 weeks",176 mg/kg/day (inactive)
same,TD50,"mouse, strain Charles River CD1, females, in feed, site: lung, lesion: adenocarcinoma, dosed 109 weeks, study length 109 weeks",3140 mg/kg/day (inactive)
same,TD50,"mouse, strain Charles River CD1, females, in feed, site: lung, lesion: adenoma, dosed 109 weeks, study length 109 weeks",4500 mg/kg/day (inactive)
same,carcinogen call,"mouse, strain Charles River CD1, males, in feed, site: liver, lesion: several types, types named in the paper, dosed 101 weeks, study length 101 weeks",negative (inactive)
same,TD50,"mouse, strain Charles River CD1, males, in feed, site: lung, lesion: adenocarcinoma, dosed 101 weeks, study length 101 weeks",1020 mg/kg/day (inactive)
same,carcinogen call,"mouse, strain Charles River CD1, males, in feed, site: lung, lesion: adenoma, dosed 101 weeks, study length 101 weeks",negative (inactive)
same,TD50,"rat, strain Fischer 344, females, by gavage, site: any site (literature study), lesion: several types, types named in the paper, dosed 103 weeks, study length 104 weeks",456 mg/kg/day
same,TD50,"rat, strain Fischer 344, females, by gavage, site: kidney, lesion: tubule adenoma, dosed 103 weeks, study length 104 weeks",1410 mg/kg/day and 930 mg/kg/day
same,TD50,"rat, strain Fischer 344, males, by gavage, site: any site (literature study), lesion: several types, types named in the paper, dosed 39 weeks, study length 104 weeks",210 mg/kg/day
same,TD50,"rat, strain Fischer 344, males, by gavage, site: any site (literature study), lesion: several types, types named in the paper, dosed 65 weeks, study length 104 weeks",12.2 mg/kg/day
same,TD50,"rat, strain Fischer 344, males, by gavage, site: any site (literature study), lesion: several types, types named in the paper, dosed 101 weeks, study length 104 weeks",12 mg/kg/day
same,TD50,"rat, strain Fischer 344, males, by gavage, site: forestomach, lesion: squamous-cell papilloma, dosed 101 weeks, study length 104 weeks",142 mg/kg/day
same,TD50,"rat, strain Fischer 344, males, by gavage, site: kidney, lesion: adenoma + tubule adenoma + tubule carcinoma, dosed 101 weeks, study length 104 weeks",13.9 mg/kg/day
same,TD50,"rat, strain Fischer 344, males, by gavage, site: kidney, lesion: adenoma + tubule adenoma, dosed 101 weeks, study length 104 weeks",226 mg/kg/day and 13.9 mg/kg/day
same,TD50,"rat, strain Fischer 344, males, by gavage, site: kidney, lesion: tubule adenoma, dosed 65 weeks, study length 104 weeks",67.6 mg/kg/day
same,TD50,"rat, strain Fischer 344, males, by gavage, site: kidney, lesion: tubule carcinoma, dosed 101 weeks, study length 104 weeks",151 mg/kg/day
same,TD50,"rat, strain Fischer 344, males, by gavage, site: liver, lesion: hepatocellular adenoma + hepatoblastoma + hepatocellular carcinoma, dosed 65 weeks, study length 104 weeks",171 mg/kg/day
same,TD50,"rat, strain Fischer 344, males, by gavage, site: pituitary gland, lesion: pars distalis adenoma, dosed 101 weeks, study length 104 weeks",19.7 mg/kg/day
same,TD50,"rat, strain Fischer 344, males, by gavage, site: testis, lesion: interstitial-cell adenoma, dosed 39 weeks, study length 104 weeks",19.8 mg/kg/day
same,TD50,"rat, strain Fischer 344, males, by gavage, site: testis, lesion: interstitial-cell adenoma, dosed 65 weeks, study length 104 weeks",8.22 mg/kg/day
same,TD50,"rat, strain Fischer 344, males, by gavage, site: testis, lesion: interstitial-cell adenoma, dosed 101 weeks, study length 104 weeks",3.62 mg/kg/day
same,TD50,"rat, strain Sprague-Dawley, females, in feed, site: liver, lesion: cholangiocarcinoma, dosed 110 weeks, study length 110 weeks",767 mg/kg/day
same,TD50,"rat, strain Sprague-Dawley, females, in feed, site: liver, lesion: several types, types named in the paper, dosed 110 weeks, study length 110 weeks",1440 mg/kg/day
same,TD50,"rat, strain Sprague-Dawley, males, in feed, site: liver, lesion: cholangiocarcinoma, dosed 104 weeks, study length 104 weeks",302 mg/kg/day
same,TD50,"rat, strain Sprague-Dawley, males, in feed, site: liver, lesion: several types, types named in the paper, dosed 104 weeks, study length 104 weeks",365 mg/kg/day
CN(C)c1ccc(N=NS(=O)(=O)O)cc1,TD50,"mouse, strain B6C3F1, females, in feed, site: any site (literature study), lesion: several types, types named in the paper, dosed 78 weeks, study length 95 weeks",259 mg/kg/day
same,TD50,"mouse, strain B6C3F1, females, in feed, site: liver, lesion: hepatocellular adenoma + hepatocellular carcinoma + neoplastic nodule, dosed 78 weeks, study length 95 weeks",152 mg/kg/day
same,TD50,"mouse, strain B6C3F1, females, in feed, site: liver, lesion: hepatocellular adenoma + hepatocellular carcinoma, dosed 78 weeks, study length 95 weeks",152 mg/kg/day (inactive)
same,TD50,"mouse, strain B6C3F1, females, in feed, site: lung, lesion: alveolar/bronchiolar adenoma + alveolar/bronchiolar carcinoma, dosed 78 weeks, study length 95 weeks",1750 mg/kg/day
same,carcinogen call,"mouse, strain B6C3F1, males, in feed, site: any site (literature study), lesion: several types, types named in the paper, dosed 78 weeks, study length 94 weeks",negative (inactive)
same,carcinogen call,"rat, strain Fischer 344, females, in feed, site: any site (literature study), lesion: several types, types named in the paper, dosed 78 weeks, study length 105 weeks",negative (inactive)
same,carcinogen call,"rat, strain Fischer 344, males, in feed, site: any site (literature study), lesion: several types, types named in the paper, dosed 78 weeks, study length 105 weeks",negative (inactive)
C=CCN(CC(C)O)N=O (stereo not given),TD50,"rat, strain Fischer 344, females, in drinking water, site: esophagus, lesion: several types, types named in the paper, dosed 50 weeks, study length 65 weeks",4.67 mg/kg/day
same,TD50,"rat, strain Fischer 344, females, in drinking water, site: liver, lesion: hepatocellular carcinoma, dosed 50 weeks, study length 65 weeks",1.38 mg/kg/day
same,TD50,"rat, strain Fischer 344, females, in drinking water, site: nasal cavity, lesion: several types, types named in the paper, dosed 50 weeks, study length 65 weeks",0.877 mg/kg/day
CCCc1c(OCCCCc2nn[nH]n2)ccc(C(C)=O)c1O,TD50,"mouse, strain B6C3F1, females, in feed, site: liver, lesion: hepatocellular adenoma, dosed 104 weeks, study length 104 weeks",369 mg/kg/day
same,TD50,"mouse, strain B6C3F1, females, in feed, site: liver, lesion: hepatocellular carcinoma, dosed 104 weeks, study length 104 weeks",112 mg/kg/day
same,TD50,"mouse, strain B6C3F1, males, in feed, site: liver, lesion: hepatocellular adenoma, dosed 104 weeks, study length 104 weeks",2740 mg/kg/day
same,TD50,"mouse, strain B6C3F1, males, in feed, site: liver, lesion: hepatocellular carcinoma, dosed 104 weeks, study length 104 weeks",426 mg/kg/day
CC(=O)CN(C)N=O,TD50,"rat, strain MRC, females, by gavage, site: esophagus, lesion: several types, types named in the paper, dosed 67 weeks, study length 76 weeks",0.16 mg/kg/day
same,TD50,"rat, strain MRC, females, by gavage, site: liver, lesion: several types, types named in the paper, dosed 67 weeks, study length 76 weeks",0.268 mg/kg/day
same,TD50,"rat, strain MRC, females, by gavage, site: nasal and paranasal cavity, lesion: several types, types named in the paper, dosed 67 weeks, study length 76 weeks",0.0167 mg/kg/day
same,TD50,"rat, strain MRC, females, by gavage, site: pharynx, lesion: several types, types named in the paper, dosed 67 weeks, study length 76 weeks",0.0758 mg/kg/day
same,TD50,"rat, strain MRC, males, by gavage, site: esophagus, lesion: several types, types named in the paper, dosed 51 weeks, study length 58 weeks",0.0642 mg/kg/day
same,TD50,"rat, strain MRC, males, by gavage, site: liver, lesion: several types, types named in the paper, dosed 51 weeks, study length 58 weeks",0.252 mg/kg/day
same,TD50,"rat, strain MRC, males, by gavage, site: nasal and paranasal cavity, lesion: several types, types named in the paper, dosed 51 weeks, study length 58 weeks",0.0178 mg/kg/day
same,TD50,"rat, strain MRC, males, by gavage, site: nasopharynx, lesion: papilloma, dosed 51 weeks, study length 58 weeks",0.942 mg/kg/day
same,TD50,"rat, strain MRC, males, by gavage, site: pharynx, lesion: several types, types named in the paper, dosed 51 weeks, study length 58 weeks",0.023 mg/kg/day
